Reference: patent US12180508B2, “Method of preparing in vitro-matured human intestinal organoids and use thereof” (KOREA RESEARCH INSTITUTE OF BIOSCIENCE AND BIOTECHNOLOGY, priority 2018, dated 2024)
Where two headings read alike, the source gives them in different places. Each block holds one molecule with its values, some of them ahead of it.

Legend:
CFTR = molecular target: T1, CFTR (Homo sapiens, UniProt P13569); experiment: Forskolin-induced organoid swelling assay (CFTR function); assay type: cell-based; settings: mature organoids, forskolin 25 uM, 120 minutes
T1 construct: To examine the function of CFTR present in mature intestine epithelial cells in organoid models; endogenous in cells; host or cells: hPSC-derived human intestinal organoids (control, co-cultured with Jurkat T cells, or IL-2-treated)
Description: To examine the function of CFTR present in mature intestine epithelial cells in organoid models, forskolin-induced organoid swelling assay was performed. Control and co-cultured or IL-2-treated hIOs (n=4) were treated with forskolin (25 uM, Merckmillopore), and then morphological observation was performed for 120 min at 20 min intervals through live imaging function of a microscope (IX83, Olympus). CFTR inhibitors (CFTRinh172, GlyH101) were co-treated, and morphological observation was performed for the same time. The size of organoids was calculated every hour, and mean values thereof were used to plot a graph.

hIOs [1] = experiment: Immunofluorescence staining of marker proteins in hIOs; assay type: cell-based, human; settings: colivelin treatment
Description: (§1) An immunofluorescence analysis was performed according to a known method (Kwak et al., Biochemical and biophysical research communications 457, 554-560, 2015). In detail, hPSCs and definitive endodermal cells were fixed in 4% paraformaldehyde (PFA) and then permeabilized with PBS containing 0.1% Triton X-100.
(§2) hIOs and tissues were fixed, cryo-protected in sucrose, and frozen using an optimal-cutting-temperature (OCT) compound (Sakura Finetek, Tokyo, Japan). Then, frozen sections were cut at a thickness of 10-20 μm using a cryostat microtome at −20° C. and permeabilized with PBS containing 0.1% Triton X-100 for immunofluorescence analysis.
(§3) In detail, after being blocked with 4% BSA, cells were incubated with primary antibodies at 4° C. overnight, and then incubated with secondary antibodies for 1 hr at room temperature. The used primary antibodies are as in Table 2. Paraffin sections were deparaffinized, subjected to antigen retrieval, and stained in a similar manner to OCT sections. DAPI was added to visualize nuclei. Slides were examined with an Axiovert 200M microscope (Carl Zeiss, Gottingen, Germany) or a fluorescence microscope (IX51, Olympus, Japan).

hIOs [2] = experiment: qPCR of intestinal maturation markers in hIOs; assay type: cell-based, human; settings: colivelin treatment compared with control hIOs
Description: Total RNA was extracted from cells using an RNeasy Kit (Qiagen), and reverse-transcribed using a Superscript III cDNA synthesis kit (Invitrogen). qRT-PCR was performed by a method disclosed in a 7500 Fast Real-time PCR system (Applied Biosystems, Foster City, CA, USA) (Cho et al., Oncotarget 6, 23837-23844, 2015). All experiments were performed in triplicate, and CT value of each target gene was calculated using a software provided by the manufacturer. Nucleotide sequences of the used primers are as in Table 1.

hPSC-derived hIOs = experiment: Growth / size (surface area, budding) of hPSC-derived hIOs; assay type: cell-based, human; settings: for growth of hIOs with many crypt-like budding structures: treatment with STAT3 activators; for stimulation of IL-2 on hIO growth in presence of inhibitor: with IL-2, S31-201 10 μM, Stattic 1 μM, Rapamycin 10 nM
Description: To estimate the size of hIOs, surface areas of horizontal cross-sections of hIOs were measured.

[3] = molecular target: P-glycoprotein (P-gp)/MDR1 (Homo sapiens, UniProt P08183); settings: paclitaxel 10 μM basolateral, 2 hr incubation
p-STAT3 (Y705) = experiment: Phospho-STAT3 immunostaining of hIOs; assay type: cell-based, human; settings: IL-2 treated Mat-hIOs; Stattic 1 μM or S3I-201 10 μM
Description: as §1, §2, §3

T1 sequence (P13569 whole entry): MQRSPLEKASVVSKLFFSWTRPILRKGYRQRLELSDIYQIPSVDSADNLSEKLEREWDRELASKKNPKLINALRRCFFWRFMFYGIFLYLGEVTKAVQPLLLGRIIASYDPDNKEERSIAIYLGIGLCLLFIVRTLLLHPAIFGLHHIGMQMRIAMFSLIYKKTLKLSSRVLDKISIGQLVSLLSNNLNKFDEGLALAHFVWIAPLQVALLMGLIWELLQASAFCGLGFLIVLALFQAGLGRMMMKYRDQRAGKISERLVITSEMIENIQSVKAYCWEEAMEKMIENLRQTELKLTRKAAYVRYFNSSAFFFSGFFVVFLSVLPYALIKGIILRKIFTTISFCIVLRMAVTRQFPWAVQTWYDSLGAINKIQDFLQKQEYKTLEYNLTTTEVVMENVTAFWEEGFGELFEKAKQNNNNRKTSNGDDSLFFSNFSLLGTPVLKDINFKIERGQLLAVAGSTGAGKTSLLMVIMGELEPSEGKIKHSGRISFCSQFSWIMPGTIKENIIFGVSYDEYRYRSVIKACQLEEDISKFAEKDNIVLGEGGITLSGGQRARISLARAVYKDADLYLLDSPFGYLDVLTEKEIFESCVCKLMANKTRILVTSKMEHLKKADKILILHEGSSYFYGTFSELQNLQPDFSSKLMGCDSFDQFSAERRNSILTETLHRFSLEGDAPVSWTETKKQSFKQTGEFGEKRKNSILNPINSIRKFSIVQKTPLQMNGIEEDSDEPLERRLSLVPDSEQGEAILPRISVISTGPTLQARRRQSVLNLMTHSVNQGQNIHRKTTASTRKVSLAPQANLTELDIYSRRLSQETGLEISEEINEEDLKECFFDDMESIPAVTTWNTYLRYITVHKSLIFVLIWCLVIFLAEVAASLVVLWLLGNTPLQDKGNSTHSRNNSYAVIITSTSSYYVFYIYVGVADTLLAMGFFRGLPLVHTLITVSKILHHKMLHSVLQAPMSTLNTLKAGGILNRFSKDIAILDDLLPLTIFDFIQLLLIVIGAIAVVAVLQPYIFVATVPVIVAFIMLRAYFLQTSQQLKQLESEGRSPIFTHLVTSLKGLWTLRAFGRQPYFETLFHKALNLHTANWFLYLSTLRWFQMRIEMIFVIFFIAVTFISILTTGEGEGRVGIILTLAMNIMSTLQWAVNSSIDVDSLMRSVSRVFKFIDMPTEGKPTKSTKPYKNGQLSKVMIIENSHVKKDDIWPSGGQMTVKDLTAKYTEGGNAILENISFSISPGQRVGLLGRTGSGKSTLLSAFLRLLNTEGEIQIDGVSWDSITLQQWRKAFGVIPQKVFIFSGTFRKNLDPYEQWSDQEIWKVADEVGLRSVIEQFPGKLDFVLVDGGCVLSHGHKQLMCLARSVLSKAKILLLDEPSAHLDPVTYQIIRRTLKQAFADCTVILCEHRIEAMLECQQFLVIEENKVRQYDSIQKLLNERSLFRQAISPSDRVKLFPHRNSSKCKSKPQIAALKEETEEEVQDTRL
P-glycoprotein (P-gp)/MDR1, sequence (P08183 whole entry): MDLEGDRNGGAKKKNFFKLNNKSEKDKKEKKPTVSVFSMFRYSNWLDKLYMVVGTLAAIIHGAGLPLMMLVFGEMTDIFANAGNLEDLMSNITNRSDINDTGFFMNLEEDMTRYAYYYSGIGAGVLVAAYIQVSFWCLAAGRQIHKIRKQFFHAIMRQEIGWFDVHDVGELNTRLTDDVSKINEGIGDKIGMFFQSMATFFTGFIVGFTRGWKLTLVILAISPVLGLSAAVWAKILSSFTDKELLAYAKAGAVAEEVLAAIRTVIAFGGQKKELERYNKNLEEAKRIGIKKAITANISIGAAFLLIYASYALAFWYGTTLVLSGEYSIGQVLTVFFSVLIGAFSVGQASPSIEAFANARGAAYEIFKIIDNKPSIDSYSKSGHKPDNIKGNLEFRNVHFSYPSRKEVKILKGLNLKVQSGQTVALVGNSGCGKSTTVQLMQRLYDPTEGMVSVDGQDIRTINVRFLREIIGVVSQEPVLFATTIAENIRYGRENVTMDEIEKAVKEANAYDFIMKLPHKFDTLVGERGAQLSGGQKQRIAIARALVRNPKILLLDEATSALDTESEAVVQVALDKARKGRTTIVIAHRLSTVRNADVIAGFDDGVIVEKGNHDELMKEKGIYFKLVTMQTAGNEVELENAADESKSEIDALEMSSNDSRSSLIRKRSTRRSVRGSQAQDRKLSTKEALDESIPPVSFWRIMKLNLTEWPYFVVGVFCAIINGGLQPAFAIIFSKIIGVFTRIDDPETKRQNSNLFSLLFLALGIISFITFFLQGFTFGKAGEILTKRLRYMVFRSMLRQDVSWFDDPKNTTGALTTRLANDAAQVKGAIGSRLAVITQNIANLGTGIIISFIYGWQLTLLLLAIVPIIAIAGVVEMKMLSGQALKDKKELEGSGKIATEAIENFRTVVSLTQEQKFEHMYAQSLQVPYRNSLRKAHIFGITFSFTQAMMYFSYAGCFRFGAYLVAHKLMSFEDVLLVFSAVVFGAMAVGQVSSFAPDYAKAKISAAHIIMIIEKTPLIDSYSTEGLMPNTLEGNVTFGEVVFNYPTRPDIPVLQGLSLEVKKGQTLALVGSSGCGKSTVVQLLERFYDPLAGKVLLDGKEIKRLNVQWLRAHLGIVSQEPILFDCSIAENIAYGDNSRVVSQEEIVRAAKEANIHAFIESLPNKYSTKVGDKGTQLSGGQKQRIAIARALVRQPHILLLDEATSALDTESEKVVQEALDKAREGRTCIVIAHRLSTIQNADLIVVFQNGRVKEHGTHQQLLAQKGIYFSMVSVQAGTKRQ

forskolin-induced swelling effect under CFTR inhibitor (CFTR): completely blocked
Molecule: O=C(CNc1ccc2ccccc2c1)N/N=C/c1cc(Br)c(O)c(Br)c1O [GlyH101]

forskolin-induced swelling effect under CFTR inhibitor (CFTR): completely blocked
Molecule: O=C(O)c1ccc(/C=C2\SC(=S)N(c3cccc(C(F)(F)F)c3)C2=O)cc1 [CFTRinh172]

protein expression of Ki-67, OLFM4, MUC13 and KRT20 (hIOs [1]): increased
Molecule: Colivelin
expression of intestinal maturation markers (hIOs [2]): increased
growth of hIOs with many crypt-like budding structures (hPSC-derived hIOs): promoted the growth
size of hIO (hPSC-derived hIOs; various concentrations of colivelin): increased

concentration of paclitaxel at the apical side, increase compared with control hIOs ([3]; IL-2-treated hIOs): ~3 fold
concentration of paclitaxel at the apical side, increase compared with control hIOs ([3]; co-cultured hIOs): approximately 2.3 fold
Molecule: CC(=O)O[C@H]1C(=O)[C@@]2(C)[C@H]([C@H](OC(=O)c3ccccc3)[C@]3(O)C[C@H](OC(=O)[C@H](O)[C@@H](NC(=O)c4ccccc4)c4ccccc4)C(C)=C1C3(C)C)[C@]1(OC(C)=O)CO[C@@H]1C[C@@H]2O [paclitaxel]

Molecule: O=[N+]([O-])c1ccc2c(c1)S(=O)(=O)C=C2 [Stattic]
phosphorylation of STAT3 at tyrosine 705 (Y705) (p-STAT3 (Y705)): blocked
stimulation of IL-2 on hIO growth in presence of inhibitor (hPSC-derived hIOs): prevented

Molecule: Cc1ccc(S(=O)(=O)OCC(=O)Nc2ccc(C(=O)O)c(O)c2)cc1 [S3I-201]
phosphorylation of STAT3 at tyrosine 705 (Y705) (p-STAT3 (Y705)): blocked
stimulation of IL-2 on hIO growth in presence of inhibitor (hPSC-derived hIOs): prevented

B1: IL-22: another known STAT3 activator, cytokine (protein, UniProt Q9GZX6 34-179, looked up)
Interleukin-22: APISSHCRLDKSNFQQPYITNRTFMLAKEASLADNNTDVRLIGEKLFHGVSMSERCYLMKQVLNFTLEEVLFPQSDRFQPYMQEVVPFLARLSNRLSTCHIEGDDLHIQRNVQKLKDTVKKLGESGEIKAIGELDLLFMSLRNACI
growth of hIOs with many crypt-like budding structures (hPSC-derived hIOs): promoted the growth
